Patent US9724312B2, “Agent for the prevention, improvement or treatment of retinal disease” (ROHTO PHARMACEUTICAL CO., LTD., priority 2012, dated 2017)

Key:
PC12 = experiment: Protective effect against ischemic cell death induced by hypoxia and low glucose (Cell Titer-Glo cell viability); format: cell-based, rat; conditions: 30 μM, 2 h pre-incubation, then low glucose/zero percent O2 8 h, FIG. 1, n=10, Tukey-Kramer
Text: The progress of visual impairment in glaucoma is associated with retinal ganglion cell (RGC) death due to blood flow failure occurring near the optic nerve (Folia Pharmacol. Jpn. 128, 255-258 (2006)). With the use of PC12, which is a typical neural cell line established from rat adrenal […] pheochromocytoma and used also as a model cell for the functional evaluation of RGC (J Neurosci Res. 2000 May 15; 60(4): 495-503), the cytoprotective effect of GGA against ischemic cell death induced by hypoxia and low glucose was evaluated.
Test samples were prepared as follows. The test substances were four types of GGAs that contain the all-trans form and the 5Z-mono-cis form at a weight ratio of 10:0, 8:2, 6:4, and 0:10, respectively. […]
After 8 hours of incubation, 100 μL of an equivalent mixture of a cell viability detection reagent Cell Titer-Glo (Promega) and PBS was added to each well and the luminescence produced by the reaction with ATP in living cells was measured with a luminometer (GloMax; Promega). The cell viability was calculated from the measured luminescence by the following formula and the cytoprotective effect of GGA against oxidative stress by hydrogen peroxide was examined. Cell viability(%)=100×[(luminescence of base- or GGA-treated group)/(luminescence of non-treated group)]

[1] = test system: rat models with glaucoma induced by NMDA; experiment: Protective effect for retinal ganglion cells against nerve damage by NMDA (thickness of inner plexiform layer); format: in vivo
Text: In recent years the glutamate analogue NMDA (N-methyl-D-aspartate) has been widely reported to be one of causative agents of neurodegenerative diseases including Alzheimer's disease. In the ophthalmic field, NMDA is considered to be involved in optic nerve damage in glaucoma (Brain Research Bulletin, 81 (2010) 349-358). Accordingly, in this experiment rat models with glaucoma induced by NMDA were used to evaluate the neuroprotective effect of GGA.
To Sprague-Dawley (SD) rats, the all-trans form, the 5Z-mono-cis form and teprenone were separately pre-administered by oral administration (Test Example 1), intravitreal administration (Test Example 2) or ocular instillation administration (Test Example 3) and 5 μL of NMDA was administered into the vitreous body to induce nerve damage. For Test Example 2, a marketed therapeutic eye drop for glaucoma, AIPHAGAN (trade name), was intravitreally administered as a positive control once a day for five days. For each of Test Examples, a base not containing GGA or AIPHAGAN was administered as a control in the same manner as described above.
The dosage and regimen of Test Examples 1 to 3 are shown in Table 1 and the constitution of the base used in each tests are shown in Table 2.
Three days after administration of NMDA, the eyeballs were harvested, fixed with half Karnovsky's fixative for 24 hours, embedded in paraffin, thin sectioned and stained with hematoxylin-eosin (HE) to prepare histopathological sections. The histological sections were observed under an optical microscope and the thickness (μm) of the inner plexiform layer (IPL) of the retina was measured. From the thickness of the inner plexiform layer (IPL) of the retina, the neuroprotective effects of the test preparations were evaluated.

## CC(=O)CC/C=C(\C)CC/C=C(\C)CC/C=C(\C)CCC=C(C)C [all-trans form, (5E,9E,13E)-6,10,14,18-tetramethyl-5,9,13,17-nonadecatetrae n-2-one]
PC12
  cytoprotective effect compared with GGA 6:4: significantly higher cytoprotective effects
[1]; Test Example 1: oral 800 mg/kg, 2 days, once a day, NMDA 4 mM, FIG. 6, Dunnett
  neuroprotective effect against nerve damage by NMDA compared with base (IPL thickness): significant neuroprotective effects
[1]; Test Example 2: intravitreal 0.05% w/v, 5 days, once a day, NMDA 40 mM, FIG. 7, Tukey-Kramer
  neuroprotective effect against nerve damage by NMDA compared with base (IPL thickness): significant neuroprotective effects
[1]; Test Example 2: intravitreal 0.05% w/v, 5 days, NMDA 40 mM, FIG. 7
  neuroprotective effect compared with AIPHAGAN Ophthalmic Solution 0.1%: significantly superior neuroprotective effect
[1]; Test Example 3: ocular instillation 1% w/v, 5 days, 5 times per day, NMDA 4 mM, FIG. 9, t-test
  neuroprotective effect against nerve damage by NMDA compared with base (IPL thickness): significant neuroprotective effect
